As usually defined, the inhibition is the share of the control response that was lost under treatment.

52 compounds from patent publication US10696642B2, “TEAD transcription factor autopalmitoylation inhibitors” (The General Hospital Corporation, priority 2015, dated 2020) can be followed below.

The target of one experiment is T1, TEAD2 (Homo sapiens, UniProt Q15562).
T1 construct: The cDNA encoding human TEAD2 (residues 217-447, TEAD2^217-447) was cloned into a pET29 vector; made in house; host or cells: E. coli BL21(DE3)-T1R
Briefly: In vitro palmitoylation assay to measure potency of TEAD palmitoylation inhibitors (Example 11). The conditions noted are these: compound at 5 μM, 3 μM alkyne palmitoyl-CoA, normalized to DMSO control. Format: biochemical. The protocol: Recombinant His6TEAD2 (500 ng) protein was incubated with DMSO control or TEAD inhibitors (MGH-CP1 and its analogues) at 5 μM for 30 min. 3 μM of alkyne palmitoyl-CoA (Cayman Chemical) were then added into the reaction mixture and incubated for 2 h in 50 mM MES, pH 6.4. The reaction was quenched with 1% SDS followed by Click reaction with biotin-azide. Samples were analyzed by SDS-PAGE and streptavidin HRP. Bands intensity obtained from streptavidin blot were quantified using Image J (NIH), and normalized to DMSO control. The percentage of inhibition was determined by comparing to DMSO control and non-palmitoylated TEAD2. To determine the dose-dependency of the inhibitors, various concentrations of the compounds (10 nM to 20 μM) were incubated with TEAD2 protein for 30 min, and then 3 μM of alkyne palmitoyl-CoA (Cayman Chemical) were then added into the reaction mixture and incubated for 2 h in 50 mM MES, pH 6.4. The reaction was then quenched and analyzed similarly as descried above. The level of palmitoylation was then determined by the streptavidin blot, and plotted by Prism to determine the IC50 values.
Compounds (4) to (53) were tested for activity in inhibiting TEAD palmitoylation in the assay of Example 11. The data for the compounds provided in Table 2 as a percentage of inhibition of TEAD2 palmitoylation by the compound at a concentration of 5 μM.

The subject of a further experiment is HuH7 cells. Briefly: Colony formation, HuH7. Format: cell-based, human. The conditions noted are these: tested at 0-20 μM (FIG. 29). As for the experimental part: Assays were performed to measure inhibition of cancer cell proliferation in HuH7 cells by compounds (4), (22) and (36), which were each tested at 0-20 μM.

T1 sequence (Q15562 217-447): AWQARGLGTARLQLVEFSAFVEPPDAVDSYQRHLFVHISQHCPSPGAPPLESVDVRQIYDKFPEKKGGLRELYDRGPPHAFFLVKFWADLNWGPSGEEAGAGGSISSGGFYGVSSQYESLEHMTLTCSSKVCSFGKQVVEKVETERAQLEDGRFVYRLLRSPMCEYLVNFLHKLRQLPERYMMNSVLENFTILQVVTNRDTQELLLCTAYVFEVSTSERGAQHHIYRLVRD

On TEAD2, `CC(C)(C)c1ccc(NC(=O)CSc2nnc[nH]2)cc1` showed an inhibition at 5 µM of 30%.
Same read-out and setting: for `CC(C)c1ccc(NC(=O)CSc2nnc[nH]2)cc1` the value was 24%; for `COc1ccc(-c2nnc(SCC(=O)Nc3ccc(C45CC6CC(CC(C6)C4)C5)cc3)[nH]2)cc1`, 80%.
The same measure, in the same setting: for `Cn1c(SCC(=O)Nc2ccc(C34CC5CC(CC(C5)C3)C4)cc2)nnc1-c1ccccc1` the value was 70%; for `CCn1c(SCC(=O)Nc2ccc(C34CC5CC(CC(C5)C3)C4)cc2)nnc1-c1ccccc1O`, 10%; for `CCn1c(CN2CCOCC2)nnc1SCC(=O)Nc1ccc(C23CC4CC(CC(C4)C2)C3)cc1`, 10%.
Same read-out and setting: as for `Cn1cnnc1SCC(=O)Nc1ccc(C23CC4CC(CC(C4)C2)C3)cc1`, the figure is 10%; as for `O=C(CSc1nnc[nH]1)Nc1ccc(-c2ccccc2)cc1`, 89%.
`Cn1cnnc1SCC(=O)Nc1ccc(-c2ccccc2)cc1` displayed an inhibition at 5 µM at TEAD2 of 23%.
`Cn1cnnc1SCC(=O)Nc1ccc(C23CC4CC(CC(C4)C2)C3)cc1Br` returned an inhibition at 5 µM on TEAD2 of 12%.
Still for that read-out and setting: as for `O=C(CSc1nnc[nH]1)Nc1ccc(C23CC4CC(CC(C4)C2)C3)cc1Br`, the figure is 87%.
Same read-out and setting: for `O=C(CSc1nnc[nH]1)Nc1ccc(-c2cccc3ccccc23)cc1` the value was 90%.
Compound `O=C(CSc1nnc[nH]1)Nc1ccc(-c2ccccc2)cc1Br` returned an inhibition at 5 µM against TEAD2 of 89%.
For `O=C(CSc1nnc[nH]1)Nc1ccc(-c2cc3ccccc3c3ccccc23)cc1`, testing at 5 µM on TEAD2 gave an inhibition of 56%.
The same measure, in the same setting: as for `O=C(CSc1nnc[nH]1)Nc1ccc(-c2ccc(C3CCCCC3)cc2)cc1`, the figure is 93%.
The same measure, in the same setting: as for `O=C(CSc1nnc[nH]1)Nc1ccc(-c2cc(C(F)(F)F)cc(C(F)(F)F)c2)cc1`, the figure is 95%.
Compound `CC(C)(C)c1ccc(-c2ccc(NC(=O)CSc3nnc[nH]3)cc2)cc1` yielded an inhibition at 5 µM against TEAD2 of 100%.
Same read-out and setting: for `O=C(CSc1nnc[nH]1)Nc1ccc(-c2cc(-c3ccccc3)cc(-c3ccccc3)c2)cc1` the value was 68%; for `Cc1cc(C)cc(-c2ccc(NC(=O)CSc3nnc[nH]3)cc2)c1`, 100%; for `CCCc1ccc(-c2ccc(NC(=O)CSc3nnc[nH]3)cc2)cc1`, 97%.
Still for that read-out and setting: as for `O=C(CSc1nnc[nH]1)Nc1ccc(-c2cccc(C(F)(F)F)c2)cc1`, the figure is 88%; as for `O=C(CSc1nnc[nH]1)Nc1ccc(-c2cccc(-c3ccccc3)c2)cc1`, 70%; as for `O=C(CS(=O)(=O)c1nnc[nH]1)Nc1ccc(C23CC4CC(CC(C4)C2)C3)cc1`, below 10%.
Same read-out and setting: as for `O=C(CNc1nnc[nH]1)Nc1ccc(C23CC4CC(CC(C4)C2)C3)cc1`, the figure is 45%.
`O=C(CCSc1nnc[nH]1)Nc1ccc(C23CC4CC(CC(C4)C2)C3)cc1` had an inhibition at 5 µM on TEAD2 of 100%.
`O=C(CSc1nncs1)Nc1ccc(C23CC4CC(CC(C4)C2)C3)cc1`: at TEAD2, the inhibition at 5 µM was found to be 68%.
Still for that read-out and setting: for `O=C(CSc1nnc[nH]1)Oc1ccc(C23CC4CC(CC(C4)C2)C3)cc1` the value was 39%; for `CCOc1ccc2nc(SCC(=O)Nc3ccc(C45CC6CC(CC(C6)C4)C5)cc3)sc2c1`, 40%.
On the same count and under the same terms, as for `Cc1ccc(-c2nnc(SCC(=O)Nc3ccc(C45CC6CC(CC(C6)C4)C5)cc3)o2)cc1`, the figure is 53%; as for `CCOc1ccc2nc(SCCC(=O)Nc3ccc(C45CC6CC(CC(C6)C4)C5)cc3)sc2c1`, 47%.
Same read-out and setting: as for `O=C(CCCSc1nnc[nH]1)Nc1ccc(C23CC4CC(CC(C4)C2)C3)cc1`, the figure is 100%.
On TEAD2, `Cc1ccc(-c2nnc(SCCC(=O)Nc3cccc(C45CC6CC(CC(C6)C4)C5)c3)o2)cc1` registered an inhibition at 5 µM of 80%.
With `Cc1nnc(SCC(=O)Nc2ccc(C34CC5CC(CC(C5)C3)C4)cc2)o1`, at 5 µM the inhibition against TEAD2 was 76%.
Still for that read-out and setting: as for `Cc1nnc(SCCC(=O)Nc2cccc(C34CC5CC(CC(C5)C3)C4)c2)o1`, the figure is 80%; as for `O=C(CSc1nnc(-c2ccc(Cl)cc2Cl)o1)Oc1ccc(C23CC4CC(CC(C4)C2)C3)cc1`, 56%.
For the compound `O=C(CCSc1nnc(-c2ccc(Cl)cc2Cl)o1)Nc1cccc(C23CC4CC(CC(C4)C2)C3)c1`, testing at 5 µM on TEAD2 gave an inhibition of 63%.
Take `Cc1ccc(-c2nnc(SCCCC(=O)Nc3ccc(C45CC6CC(CC(C6)C4)C5)cc3)o2)cc1`: on TEAD2, the inhibition at 5 µM stood at 58%.
Same read-out and setting: for `O=C(Nc1ccc(C23CC4CC(CC(C4)C2)C3)cc1)c1cccnc1Nc1cccc(C(F)(F)F)c1` the value was below 10%; for `O=C(CSc1nnc[nH]1)N(c1cccc(C(F)(F)F)c1)c1ccccn1`, below 10%; for `O=C(CSc1nnc[nH]1)Nc1ccc(-c2cccc(-c3cccnc3)c2)cc1`, 100%.
Compound `O=C(CSc1nnc[nH]1)Nc1ccc(-c2cccc(-c3ccncc3)c2)cc1` came in with an inhibition at 5 µM against TEAD2 of 100%.
The same measure, in the same setting: for `O=C(CSc1nnc[nH]1)Nc1ccc(-c2cc(-c3cccnc3)cc(-c3cccnc3)c2)cc1` the value was 95%; for `O=C(CSc1nnc[nH]1)Nc1ccc(-c2cc(-c3ccncc3)cc(-c3ccncc3)c2)cc1`, 90%.
Same read-out and setting: as for `O=C(CSc1nnc[nH]1)Nc1ccc(-c2cc(-c3ccccc3)cc(C(F)(F)F)c2)cc1`, the figure is 90%; as for `O=C(CSc1nnc[nH]1)Nc1ccc(-c2ccncc2)cc1`, 90%; as for `Cc1cc(-c2ccc(NC(=O)CSc3nnc[nH]3)cc2)cc(C)n1`, 95%.
Same read-out and setting: as for `O=C(CSc1nnc[nH]1)Nc1ccc(-c2cc(-c3ccccc3)nc(-c3ccccc3)c2)cc1`, the figure is 78%.
`Cc1cccc(C)c1-c1ccc(NC(=O)CSc2nnc[nH]2)cc1` [Compound 23]: in the experiment on HuH7 cells, the “inhibition of cancer cell proliferation / colony formation in HuH7 cells” value is “effective”.
As for `Nc1nncn1CC(=O)Nc1ccc(C23CC4CC(CC(C4)C2)C3)cc1` [Compound 36], in the experiment on HuH7 cells, the “inhibition of cancer cell proliferation / colony formation in HuH7 cells” value is given as “less effective”.
Compound `O=C(CSc1nnc[nH]1)Nc1ccc(C23CC4CC(CC(C4)C2)C3)cc1` [drawing 23] returned an inhibition at 5 µM on TEAD2 of 85%.
On to `Cc1cccc(C)c1-c1ccc(NC(=O)CSc2nnc[nH]2)cc1` [drawing 42], for which testing at 5 µM at TEAD2 gave an inhibition of 100%.
Still for that read-out and setting: as for `Nc1nncn1CC(=O)Nc1ccc(C23CC4CC(CC(C4)C2)C3)cc1` [drawing 55], the figure is 38%.
